Experiment [1] relates to Enterococcus faecalis 2041. The experiment in a line: Broth micro-dilution MIC. The format is cell-based. The following applies: BHI medium. The protocol:
(§1) The compounds of the present invention have in vitro activity against Gram-positive pathogenic bacteria. The antibacterial activity of the present compounds is illustrated in Tables III and IV. The minimal inhibitory concentrations (MICs) were determined using a standard broth micro-dilution assay. Table IV presents a comparison of the activity of illustrative compounds against representative vancomycin-resistant and vancomycin-sensitive enterococci (Enterococcus faecium and Enterococcus faecalis), mean geometric MIC (mcg/mL), as determined by the standard broth microdilution assay.
(§2) Assays for antimicrobial activity were performed using microbroth susceptibility testing methods as described by the NCCLS (National Committee for Clinical Laboratories Standards. 1990. Approved standard M7-A2. Methods for dilution antimicrobial susceptibility testing for bacteria that grow aerobically, 2 ed., Villanova Pa.). Brain-heart infusion medium (BHI) was used for testing of enterococci, and NCCLS recommendations for medium were followed for other bacteria.
Background: Broth dilution looks for growth in wells or tubes with falling amounts of substance.

The subject of experiment [2] is Enterococcus faecalis 276. The experiment in a line: Broth micro-dilution MIC. The following applies: BHI medium. The format is cell-based. As for the experimental part:
as §1, §2

Experiment [3] deals with Enterococcus faecium 180-1. The experiment can be described thus: Broth micro-dilution MIC. The following applies: BHI medium. The format is cell-based. As for the experimental part: as §1, §2
A further experiment deals with Enterococcus faecium 180. The experiment can be described thus: Broth micro-dilution MIC. The format is cell-based. As to conditions: BHI medium. The protocol: as §1, §2
The test system of experiment [4] is Enterococcus gallinarum 245. The experiment in a line: Broth micro-dilution MIC. It counts as cell-based. As to conditions: BHI medium. The protocol: as §1, §2
The test system of another experiment is Escherichia coli EC14. The experiment can be described thus: Broth micro-dilution MIC. The format is cell-based. As for the experimental part: as §1, §2
The subject of experiment [5] is Haemophilus influenzae RD. The experiment can be described thus: Broth micro-dilution MIC. The format is cell-based. The protocol:
as §1, §2

The test system of experiment [6] is Staphylococcus aureus 446. The experiment can be described thus: Broth micro-dilution MIC. The format is cell-based. As for the experimental part:
as §1, §2

The subject of experiment [7] is Staphylococcus aureus 447. The experiment can be described thus: Broth micro-dilution MIC. The format is cell-based. As for the experimental part: as §1, §2
Experiment [8] relates to Staphylococcus aureus 489. The experiment can be described thus: Broth micro-dilution MIC. The format is cell-based. The protocol: as §1, §2
Experiment [9] relates to Staphylococcus aureus 491. The experiment can be described thus: Broth micro-dilution MIC. It counts as cell-based. The protocol:
as §1, §2

Experiment [10] relates to Staphylococcus aureus S13E. The experiment in a line: Broth micro-dilution MIC. It counts as cell-based. As for the experimental part: as §1, §2
Experiment [11] deals with Staphylococcus aureus SA1199A. The experiment can be described thus: Broth micro-dilution MIC. It counts as cell-based. As for the experimental part:
as §1, §2

Experiment [12] concerns Staphylococcus aureus SA1199B. The experiment can be described thus: Broth micro-dilution MIC. It counts as cell-based. The protocol:
as §1, §2

For experiment [13], the system named is Staphylococcus aureus SA1199. The experiment in a line: Broth micro-dilution MIC. The format is cell-based. As for the experimental part: as §1, §2
The test system of experiment [14] is Staphylococcus aureus X400. The experiment can be described thus: Broth micro-dilution MIC. It counts as cell-based. As for the experimental part:
as §1, §2

Experiment [15] concerns Staphylococcus aureus X778. The experiment in a line: Broth micro-dilution MIC. The format is cell-based. The protocol: as §1, §2
The test system of experiment [16] is Staphylococcus epidermidis 270. The experiment can be described thus: Broth micro-dilution MIC. The format is cell-based. As for the experimental part:
as §1, §2

The test system of experiment [17] is Staphylococcus haemolyticus 105. The experiment in a line: Broth micro-dilution MIC. The format is cell-based. As for the experimental part:
as §1, §2

In experiment [18] the test system is Staphylococcus haemolyticus 415. The experiment in a line: Broth micro-dilution MIC. It counts as cell-based. As for the experimental part:
as §1, §2

Experiment [19] relates to Streptococcus pneumoniae P1. The experiment in a line: Broth micro-dilution MIC. The format is cell-based. The protocol:
as §1, §2

The test system of experiment [20] is Streptococcus pyogenes C203. The experiment can be described thus: Broth micro-dilution MIC. It counts as cell-based. The protocol: as §1, §2
Experiment [21] concerns vancomycin-resistant enterococci. The experiment in a line: In vitro activity against enterococci, broth microdilution. The following applies: representative vancomycin-resistant enterococci (E. faecium and E. faecalis); BHI medium. The format is cell-based, Enterococcus faecium and Enterococcus faecalis. As for the experimental part:
as §1, §2

For experiment [22], the system named is vancomycin-sensitive enterococci. The experiment is described as above. As to conditions: representative vancomycin-sensitive enterococci (E. faecium and E. faecalis); BHI medium. The format is cell-based, Enterococcus faecium and Enterococcus faecalis. As for the experimental part: as §1, §2

Converted amounts (≈) assume the structure as drawn.

Results on three compounds are retold here after US7365053B2, “Selective N-acylation of A82846 glygopeptides analogs” (priority 2000, dated 2008).

In the case of `CCCCCCCCOc1ccc(C(=O)NC2(C)CC(OC3c4ccc(c(Cl)c4)Oc4cc5cc(c4OC4OC(CO)C(O)C(O)C4OC4CC(C)(N)C(O)C(C)O4)Oc4ccc(cc4Cl)C(O)C(NC(=O)C(CC(C)C)NC)C(=O)NC(CC(N)=O)C(=O)NC5C(=O)NC4C(=O)NC3C(=O)NC(C(=O)O)c3cc(O)cc(O)c3-c3cc4ccc3O)OC(C)C2O)cc1` (stereo not drawn) [Example 7], the MIC entry in experiment [1] was “≦.06 μg/ml”; in experiment [2] it was “≦.06 μg/ml”; in experiment [3], “≦.06 μg/ml”; in the experiment with Enterococcus faecium 180, 0.5 µg/mL (≈ 0.274 µM); in experiment [4], 8 µg/mL (≈ 4.38 µM); in the experiment with Escherichia coli EC14, >64 µg/mL. Moreover, the MIC is >64 µg/mL in [5]; “≦.06 μg/ml” in experiment [6]; 0.125 µg/mL (≈ 0.0685 µM) in [7]; “≦.06 μg/ml” in experiment [8]; “≦.06 μg/ml” in experiment [9]; “≦.06 μg/ml” in [10]. In addition, the MIC entry in experiment [11] was “≦.06 μg/ml”; in experiment [12], “≦.06 μg/ml”; in experiment [13], “≦.06 μg/ml”; in [14], 0.125 µg/mL (≈ 0.0685 µM); in experiment [15] it was 0.125 µg/mL (≈ 0.0685 µM); in experiment [16], “≦.06 μg/ml”. Moreover, the MIC result in experiment [17] was “≦.06 μg/ml”; in experiment [18] it was 8 µg/mL (≈ 4.38 µM); in experiment [19], “≦.06 μg/ml”; in experiment [20] it was “≦.06 μg/ml”. The “Mean geometric MIC, Vancomycin Resistant Strains” value in [21] is 6.7 µg/mL. Besides, the “Mean geometric MIC, Vancomycin Sensitive Strains” value in experiment [22] was 0.06 µg/mL.
With `CCCCCCCC(=O)NC1(C)CC(OC2C(Oc3c4cc5cc3Oc3ccc(cc3Cl)C(OC3CC(C)(N)C(O)C(C)O3)C3NC(=O)C(NC(=O)C5NC(=O)C(CC(N)=O)NC(=O)C(NC(=O)C(CC(C)C)NC)C(O)c5ccc(c(Cl)c5)O4)c4ccc(O)c(c4)-c4c(O)cc(O)cc4C(C(=O)O)NC3=O)OC(CO)C(O)C2O)OC(C)C1O` (stereo not drawn) [Example 8, 4′-N-octanoyl-A82846B], the MIC in [1] was 0.25 µg/mL (≈ 0.145 µM); in experiment [2], 0.5 µg/mL (≈ 0.291 µM); in experiment [3], 0.125 µg/mL (≈ 0.0727 µM); in the experiment with Enterococcus faecium 180, 2 µg/mL (≈ 1.16 µM); in experiment [4] it was 16 µg/mL (≈ 9.31 µM); with Escherichia coli EC14, >64 µg/mL. In addition, the MIC in [5] was determined as 64 µg/mL (≈ 37.2 µM); in experiment [6], 2 µg/mL (≈ 1.16 µM); in experiment [7], 8 µg/mL (≈ 4.65 µM); in experiment [8], 0.25 µg/mL (≈ 0.145 µM); in experiment [9], 0.25 µg/mL (≈ 0.145 µM); in [10] it was 2 µg/mL (≈ 1.16 µM). The MIC in experiment [11] came out at 0.25 µg/mL (≈ 0.145 µM); in experiment [12] it was 2 µg/mL (≈ 1.16 µM); in [13], 2 µg/mL (≈ 1.16 µM); in [14] it was 0.5 µg/mL (≈ 0.291 µM); in experiment [15] it was 1 µg/mL (≈ 0.582 µM); in [16] it was 8 µg/mL (≈ 4.65 µM). For the same compound, the MIC in [17] was 0.5 µg/mL (≈ 0.291 µM); in experiment [18], 16 µg/mL (≈ 9.31 µM); in [19] it was “≦.06 μg/ml”; in [20] it was “≦.06 μg/ml”. The “Mean geometric MIC, Vancomycin Resistant Strains” value in experiment [21] is 54 µg/mL. In addition, the “Mean geometric MIC, Vancomycin Sensitive Strains” value in experiment [22] turned out to be 0.87 µg/mL.
Take `CCCCCCCC(=O)NC1(C)CC(OC2c3ccc(c(Cl)c3)Oc3cc4cc(c3OC3OC(CO)C(O)C(O)C3OC3CC(C)(N)C(O)C(C)O3)Oc3ccc(cc3Cl)C(O)C(NC(=O)C(CC(C)C)NC)C(=O)NC(CC(N)=O)C(=O)NC4C(=O)NC3C(=O)NC2C(=O)NC(C(=O)O)c2cc(O)cc(O)c2-c2cc3ccc2O)OC(C)C1O` (stereo not drawn) [Example 9, 6′-N-octanoyl-A82846B]: the MIC in experiment [1] is 0.5 µg/mL (≈ 0.291 µM); in [2] it was 0.125 µg/mL (≈ 0.0727 µM); in experiment [3], 0.125 µg/mL (≈ 0.0727 µM); in the experiment on Enterococcus faecium 180 it was 32 µg/mL (≈ 18.6 µM); in experiment [4] it was 16 µg/mL (≈ 9.31 µM); against Escherichia coli EC14, >64 µg/mL. Further, the MIC in experiment [5] is 64 µg/mL (≈ 37.2 µM); in experiment [6], 1 µg/mL (≈ 0.582 µM); in [7], 2 µg/mL (≈ 1.16 µM); in experiment [8], 0.125 µg/mL (≈ 0.0727 µM); in experiment [9], 0.125 µg/mL (≈ 0.0727 µM); in experiment [10], 1 µg/mL (≈ 0.582 µM). Also, the MIC in [11] was found to be 0.125 µg/mL (≈ 0.0727 µM); in [12], 0.5 µg/mL (≈ 0.291 µM); in [13] it was 0.5 µg/mL (≈ 0.291 µM); in experiment [14] it was 0.5 µg/mL (≈ 0.291 µM); in [15], 0.25 µg/mL (≈ 0.145 µM); in experiment [16], 2 µg/mL (≈ 1.16 µM). Besides, the MIC in experiment [17] was 0.25 µg/mL (≈ 0.145 µM); in experiment [18] it was 16 µg/mL (≈ 9.31 µM); in experiment [19], “≦.06 μg/ml”; in experiment [20], “≦.06 μg/ml”. Besides, in experiment [21], the “Mean geometric MIC, Vancomycin Resistant Strains” value is >90 µg/mL. Further, the “Mean geometric MIC, Vancomycin Sensitive Strains” value in experiment [22] worked out at 1.2 µg/mL.
